Experimental findings from patent US20170247393A1, “Aminoisoxazoline Compounds as Agonists of Alpha7-Nicotinic Acetylcholine Receptors” (Forum Pharmaceuticals, Inc., priority 2015, published 2017) are described below.

Counter-ions that a name gives are not always drawn.

One assay has as its target T1, human 5-HT3 serotonin receptors (Homo sapiens, UniProt P46098).
T1 sequence (P46098 24-478): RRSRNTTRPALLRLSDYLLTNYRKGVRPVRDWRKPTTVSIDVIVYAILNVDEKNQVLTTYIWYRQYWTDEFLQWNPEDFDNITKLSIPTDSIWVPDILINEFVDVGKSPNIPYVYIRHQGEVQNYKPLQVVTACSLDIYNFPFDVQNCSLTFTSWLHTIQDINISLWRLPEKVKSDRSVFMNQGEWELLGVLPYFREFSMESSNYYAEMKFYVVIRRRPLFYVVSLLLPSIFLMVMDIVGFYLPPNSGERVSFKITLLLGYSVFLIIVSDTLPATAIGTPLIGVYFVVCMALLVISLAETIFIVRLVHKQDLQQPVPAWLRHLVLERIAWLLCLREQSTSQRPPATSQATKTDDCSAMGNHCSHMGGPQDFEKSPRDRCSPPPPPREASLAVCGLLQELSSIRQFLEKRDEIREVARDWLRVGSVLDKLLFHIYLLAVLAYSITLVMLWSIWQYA
Kind of assay: biochemical. Type of assay: binding.
Conditions: not given
For the compound `Clc1cc2cnc(NC3=NO[C@@]4(C3)CN3CCC4CC3)cc2cc1Cl` [(R)-62, (R)—N-(6,7-dichloroisoquinolin-3-yl)-4H-1′-azaspiro[isoxazole-5,3′-bicyclo[2.2.2]octan]-3-amine trifluoroacetate], the Ki (usually the dissociation constant of the complex between target and ligand, obtained from inhibition or displacement) is above 10 µM.
Still for that read-out and setting: then `Clc1coc2cc(NC3=NO[C@@]4(C3)CN3CCC4CC3)ccc12` [(R)-73-1, (R)—N-(3-chlorobenzofuran-6-yl)-4H-1′-azaspiro[isoxazole-5,3′-bicyclo[2.2.2]octan]-3-amine hydrochloride], with 4.9 µM.

Still in this assay, the particulars now being: CHO cell membranes expressing human 5-HT3 receptors, [3H]BRL 43694, 120 min at room temperature; read-out: h-5HT3 Ki.
`Cc1cc2ccc(NC3=NO[C@@]4(C3)CN3CCC4CC3)cc2s1` [(R)-42, (R)—N-(2-methylbenzo[b]thiophen-6-yl)-4H-1′-azaspiro[isoxazole-5,3′-bicyclo[2.2.2]octan]-3-amine hydrochloride]: the Ki is above 10 µM.
The same measure, in the same setting: then `Cc1cc2cc(NC3=NO[C@@]4(C3)CN3CCC4CC3)ccc2s1` [(R)-43, (R)—N-(2-methylbenzo[b]thiophen-5-yl)-4H-1′-azaspiro[isoxazole-5,3′-bicyclo[2.2.2.]octan]-3-amine hydrochloride], with 5.9 µM.
As to `Fc1ccc2cc(NC3=NO[C@@]4(C3)CN3CCC4CC3)ncc2c1` [(R)-44, (R)—N-(7-fluoroisoquinolin-3-yl)-4H-F-azaspiro[isoxazole-5,3^1-bicyclo[2.2.2]octan]-3-amine hydrochloride], the Ki was above 10 µM.
`Fc1ccc2cnc(NC3=NO[C@@]4(C3)CN3CCC4CC3)cc2c1` [(R)-45, (R)—N-(6-fluoroisoquinolin-3-yl)-4H-1′-azaspiro[isoxazole-5,3′-bicyclo[2.2.2]octan]-3-amine hydrochloride]: the Ki is above 10 µM.
Still for that read-out and setting: then `COc1ccc2cc(NC3=NO[C@@]4(C3)CN3CCC4CC3)ncc2c1` [(R)-46, (R)—N-(7-methoxyisoquinolin-3-yl)-4H-1′-azaspiro[isoxazole-5,3′-bicyclo[2.2.2]octan]-3-amine hydrochloride], with above 10 µM; and `COc1ccc2cnc(NC3=NO[C@@]4(C3)CN3CCC4CC3)cc2c1` [(R)-47, (R)—N-(6-methoxyisoquinolin-3-yl)-4H-1′-azaspiro[isoxazole-5,3′-bicyclo[2.2.2]octan]-3-amine hydrochloride], with above 10 µM; and `Clc1ccc2nc(NC3=NO[C@@]4(C3)CN3CCC4CC3)ncc2c1` [(R)-48, (R)—N-(6-chloroquinazolin-2-yl)-4H-1′-azaspiro[isoxazole-5,3′-bicyclo[2.2.2]octan]-3-amine hydrochloride], with above 10 µM.
On to `Clc1ccc2cnc(NC3=NO[C@@]4(C3)CN3CCC4CC3)nc2c1` [(R)-49, (R)—N-(7-chloroquinazolin-2-yl)-4H-1′-azaspiro[isoxazole-5,3′-bicyclo[2.2.2]octan]-3-amine], for which the Ki was above 10 µM.
As for `Cc1nc2ccc(NC3=NO[C@@]4(C3)CN3CCC4CC3)cc2s1` [(R)-50, (R)—N-(2-methylbenzo[d]thiazol-6-yl)-4H-1′-azaspiro[isoxazole-5,3′-bicyclo[2.2.2]octan]-3-amine hydrochloride], the Ki worked out at 6.2 µM.
The same measure, in the same setting: then `Cc1cc2cnc(NC3=NO[C@@]4(C3)CN3CCC4CC3)nc2s1` [(R)-52, (R)—N-(6-methylthieno[2,3-d]pyrimidin-2-yl)-4H-1′-azaspiro[isoxazole-5,3′-bicyclo[2.2.2]octan]-3-amine hydrochloride], with above 10 µM; and `Cc1cc2ccc(NC3=NO[C@@]4(C3)CN3CCC4CC3)nc2s1` [(R)-53, (R)—N-(2-methylthieno[2,3-b]pyridin-6-yl)-4H-1′-azaspiro[isoxazole-5,3′-bicyclo[2.2.2]octan]-3-amine hydrochloride], with above 10 µM.
Take `Clc1cc2ccc(NC3=NO[C@@]4(C3)CN3CCC4CC3)cc2s1` [(R)-54, (R)—N-(2-chlorobenzo[b]thiophen-6-yl)-4H-F-azaspiroksoxazole-5,3^1-bicyclo[2.2.2]octan1-3-amine hydrochloride]: the Ki was above 10 µM.
On the same count and under the same terms, then `Fc1sc2cc(NC3=NO[C@@]4(C3)CN3CCC4CC3)ccc2c1F` [(R)-55, hydrochloride], with 2.2 µM; and `Cc1csc2cc(NC3=NO[C@@]4(C3)CN3CCC4CC3)ccc12` [(R)-56, (R)—N -(3-methylbenzo[b]thiophen-6-yl)-4H-1′-azaspiro[isoxazole-5,3′-bicyclo[2.2.2]octan]-3-amine hydrochloride], with above 10 µM; and `Cc1ccc2cc(NC3=NO[C@@]4(C3)CN3CCC4CC3)ncc2c1` [(R)-59, (R)—N-(7-methylisoquinolin-3-yl)-4H-1′-azaspiro[isoxazole-5,3′-bicyclo[2.2.2]octan]-3-amine hydrochloride], with above 10 µM.
For `Cc1ccc2cnc(NC3=NO[C@@]4(C3)CN3CCC4CC3)cc2c1` [(R)-60, (R)—N-(6-methylisoquinolin-3-yl)-4H-1′-azaspiro[isoxazole-5,3′-bicyclo[2.2.2]octan]-3-amine hydrochloride], the Ki was above 10 µM.
For `Fc1cc2cnc(NC3=NO[C@@]4(C3)CN3CCC4CC3)cc2cc1F` [(R)-61, (R)—N-(6,7-difluoroisoquinolin-3-yl)-4H-1′-azaspiro[isoxazole-5,3′-bicyclo[2.2.2]octan]-3-amine hydrochloride], the Ki was above 10 µM.
As to `Clc1cc2ccc(NC3=NO[C@@]4(C3)CN3CCC4CC3)cc2o1` [(R)-63, (R)—N-(2-chlorobenzofuran-6-yl)-4H-1′-azaspiro[isoxazole-5,3′-bicyclo[2.2.2]octan]-3-amine hydrochloride], the Ki was above 10 µM.
For the compound `Cn1ncc2ccc(NC3=NO[C@@]4(C3)CN3CCC4CC3)cc21` [(R)-64, (R)—N-(1-methyl-1H-indazol-6-yl)-4H-1′-azaspiro[isoxazole-5,3′-bicyclo[2.2.2]octan]-3-amine hydrochloride], the Ki is above 10 µM.
For the compound `Cn1ncc2cc(NC3=NO[C@@]4(C3)CN3CCC4CC3)ccc21` [(R)-65, (R)—N-(1-methyl-1H-indazol-5-yl)-4H-1′-azaspiro[isoxazole-5,3′-bicyclo[2.2.2]octan]-3-amine hydrochloride], the Ki was above 10 µM.
For `Cc1noc2cc(NC3=NO[C@@]4(C3)CN3CCC4CC3)ccc12` [(R)-66, (R)—N -(3-methylbenzo[d]isoxazol-6-yl)-4H-1′-azaspiro[isoxazole-5,3′-bicyclo[2.2.2]octan]-3-amine hydrochloride], the Ki stood at 4.5 µM.
As to `FC(F)(F)c1cc2ccc(NC3=NO[C@@]4(C3)CN3CCC4CC3)cc2s1` [(R)-67, (R)—N-(2-(trifluoromethyl)benzo[b]thiophen-6-yl)-4H-1′-azaspiro[isoxazole-5,3′-bicyclo[2.2.2]octan]-3-amine hydrochloride], the Ki is above 10 µM.
`Cc1ccc2nc(NC3=NO[C@@]4(C3)CN3CCC4CC3)ncc2c1` [(R)-70, (R)—N-(6-methylquinazolin-2-yl)spiro[4H-isoxazole-5,3^1-quinuclidine]-3-amine]: the Ki was above 10 µM.
For `Cc1ccc2cnc(NC3=NO[C@@]4(C3)CN3CCC4CC3)nc2c1` [(R)-71, (R)—N-(7-methylquinazolin-2-yl)-4H-1′-azaspiro[isoxazole-5,3′-bicyclo[2.2.2]octan]-3-amine hydrochloride], the Ki was 6.4 µM.
Take `Cc1nsc2cc(NC3=NO[C@@]4(C3)CN3CCC4CC3)ccc12` [(R)-72, (R)—N-(3-methylbenzo[d]isothiazol-6-yl)-4H-1′-azaspiro[isoxazole-5,3′-bicyclo[2.2.2]octan]-3-amine hydrochloride]: the Ki is above 10 µM.
As for `Cc1coc2cc(NC3=NO[C@@]4(C3)CN3CCC4CC3)ccc12` [(R)-74, (R)—N-(3-methylbenzofuran-6-yl)-4H-1′-azaspiro[isoxazole-5,3′-bicyclo[2.2.2]octan]-3-amine hydrochloride], the Ki is above 10 µM.
Turning to `Cc1cc2cnc(NC3=NO[C@@]4(C3)CN3CCC4CC3)nc2o1` [(R)-75, (R)—N-(6-methylfuro[2,3-d]pyrimidin-2-yl)spiro[4H-isoxazole-5,3′-quinuclidine]-3-amine hydrochloride], the Ki was above 10 µM.
Still for that read-out and setting: then `Clc1csc2cc(NC3=NO[C@@]4(C3)CN3CCC4CC3)ccc12` [(R)-76, (R)—N -(3-chlorobenzo[b]thiophen-6-yl)-4H-1′-azaspiro[isoxazole-5,3′-bicyclo[2.2.2]octan]-3-amine hydrochloride], with 2.8 µM.
In the case of `Fc1c(Cl)sc2cc(NC3=NO[C@@]4(C3)CN3CCC4CC3)ccc12` [(R)-78, (R)—N-(2-chloro-3-fluorobenzo[b]thiophen-6-yl)-4H-1′-azaspiro[isoxazole-5,3′-bicyclo[2.2.2]octan]-3-amine hydrochloride], the Ki was above 10 µM.
Same read-out and setting: then `c1cnc2ccc(NC3=NO[C@@]4(C3)CN3CCC4CC3)cc2c1` [(R)-80, (R)—N-(quinolin-6-yl)-41-1-1^1-azaspiro[isoxazole-5,3′-bicyclo[2.2.2]octan]-3-amine hydrochloride], with above 10 µM; and `Fc1cc2cnc(NC3=NO[C@@]4(C3)CN3CCC4CC3)cc2cc1Cl` [(R)-81, (R)—N-(6-chloro-7-fluoroisoquinolin-3-yl)-4H-1′-azaspiro[isoxazole-5,3^1-bicyclo[2.2.2]octan]-3-amine hydrochloride], with above 10 µM.

Staying with this assay, now noted: read-out: h-5HT3 Ki.
Consider `c1cnc2cc(NC3=NO[C@@]4(C3)CN3CCC4CC3)ccc2c1` [(R)-79, (R)—N-(quinolin-7-yl)-4H-1′-azaspiro[isoxazole-5,3′-bicyclo[2.2.2]octan]-3-amine hydrochloride], for which the Ki was found to be 5.6 µM.
